Measurements taken from PubChem BioAssay (NCI).
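Interpolation was linear, between the two tested concentrations surrounding the appropriate level; five concentrations were tested over 48 hours in 96-well plates. TGI is the concentration that stops growth completely.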

Assays:
Assay in all cases: NCI tumour cell line growth inhibition, 48 h
OVCAR-5 ovarian = system: OVCAR-5 ovarian
HOP-92 NSCLC = system: HOP-92 NSCLC
RPMI-8226 leukemia = system: RPMI-8226 leukemia
SW-620 colon = system: SW-620 colon
786-0 renal = system: 786-0 renal
NCI-H226 lung = system: NCI-H226 lung
A498 renal = system: A498 renal
PC-3 prostate = system: PC-3 prostate
MOLT-4 leukemia = system: MOLT-4 leukemia
HOP-62 NSCLC = system: HOP-62 NSCLC
UO-31 renal = system: UO-31 renal
ACHN renal = system: ACHN renal
BT-549 breast = system: BT-549 breast
RXF 393 renal = system: RXF 393 renal
K-562 leukemia = system: K-562 leukemia
SK-MEL-5 melanoma = system: SK-MEL-5 melanoma
OVCAR-8 ovarian = system: OVCAR-8 ovarian
MCF7 breast = system: MCF7 breast
SNB-75 CNS = system: SNB-75 CNS
HS 578T breast = system: HS 578T breast
DU-145 prostate = system: DU-145 prostate
U251 CNS = system: U251 CNS
IGROV1 ovarian = system: IGROV1 ovarian
OVCAR-4 ovarian = system: OVCAR-4 ovarian
SK-MEL-2 melanoma = system: SK-MEL-2 melanoma
HCT-116 colon = system: HCT-116 colon
HCT-15 colon = system: HCT-15 colon
SF-295 CNS = system: SF-295 CNS
COLO 205 colon = system: COLO 205 colon
NCI-H23 lung = system: NCI-H23 lung
UACC-62 melanoma = system: UACC-62 melanoma
UACC-257 melanoma = system: UACC-257 melanoma
OVCAR-3 ovarian = system: OVCAR-3 ovarian
T-47D breast = system: T-47D breast
SR leukemia = system: SR leukemia
M14 melanoma = system: M14 melanoma
SK-OV-3 ovarian = system: SK-OV-3 ovarian
SK-MEL-28 melanoma = system: SK-MEL-28 melanoma
MDA-MB-231 breast = system: MDA-MB-231 breast
MALME-3M melanoma = system: MALME-3M melanoma
HT29 colon = system: HT29 colon
HCC-2998 colon = system: HCC-2998 colon
KM12 colon = system: KM12 colon
SN12C renal = system: SN12C renal
NCI/ADR-RES ovarian = system: NCI/ADR-RES ovarian
SNB-19 CNS = system: SNB-19 CNS
CAKI-1 renal = system: CAKI-1 renal
A549 NSCLC = system: A549 NSCLC
NCI-H460 lung = system: NCI-H460 lung
EKVX NSCLC = system: EKVX NSCLC
CCRF-CEM leukemia = system: CCRF-CEM leukemia
TK-10 renal = system: TK-10 renal
MDA-MB-435 = system: MDA-MB-435
SF-268 CNS = system: SF-268 CNS
LOX IMVI melanoma = system: LOX IMVI melanoma
NCI-H522 lung = system: NCI-H522 lung

COc1ccc2[nH]c(C(O)(Cc3cccnc3)Cc3cccnc3)cc2c1 was tested, and the TGI (OVCAR-5 ovarian) was over 100 µM, the TGI (HOP-92 NSCLC) was over 100 µM and the TGI (RPMI-8226 leukemia) was over 100 µM. For the same compound, the TGI (SW-620 colon) was over 100 µM, the TGI (786-0 renal) was over 100 µM and the TGI (NCI-H226 lung) was over 100 µM. The TGI (A498 renal) was over 100 µM, the TGI (PC-3 prostate) was over 100 µM and the TGI (MOLT-4 leukemia) was over 100 µM. The TGI (HOP-62 NSCLC) was over 100 µM, the TGI (UO-31 renal) was over 100 µM and the TGI (ACHN renal) was over 100 µM. The TGI (BT-549 breast) was over 100 µM, the TGI (RXF 393 renal) was over 100 µM and the TGI (K-562 leukemia) was over 100 µM. It also gave a TGI (SK-MEL-5 melanoma) of over 100 µM, a TGI (OVCAR-8 ovarian) of over 100 µM and a TGI (MCF7 breast) of over 100 µM. The TGI (SNB-75 CNS) was over 100 µM, the TGI (HS 578T breast) was over 100 µM and the TGI (DU-145 prostate) was over 100 µM. For the same compound, the TGI (U251 CNS) was over 100 µM, the TGI (IGROV1 ovarian) was over 100 µM and the TGI (OVCAR-4 ovarian) was over 100 µM. The TGI (SK-MEL-2 melanoma) was over 100 µM, the TGI (HCT-116 colon) was over 100 µM and the TGI (HCT-15 colon) was over 100 µM. It also gave a TGI (SF-295 CNS) of over 100 µM, a TGI (COLO 205 colon) of over 100 µM and a TGI (NCI-H23 lung) of over 100 µM. The TGI (UACC-62 melanoma) was over 100 µM, the TGI (UACC-257 melanoma) was over 100 µM and the TGI (OVCAR-3 ovarian) was over 100 µM. The TGI (T-47D breast) was over 100 µM, the TGI (SR leukemia) was over 100 µM and the TGI (M14 melanoma) was over 100 µM. It also gave a TGI (SK-OV-3 ovarian) of over 100 µM, a TGI (SK-MEL-28 melanoma) of over 100 µM and a TGI (MDA-MB-231 breast) of over 100 µM. It also gave a TGI (MALME-3M melanoma) of over 100 µM, a TGI (HT29 colon) of over 100 µM and a TGI (HCC-2998 colon) of over 100 µM. It also gave a TGI (KM12 colon) of over 100 µM, a TGI (SN12C renal) of over 100 µM and a TGI (NCI/ADR-RES ovarian) of over 100 µM. It also gave a TGI (SNB-19 CNS) of over 100 µM, a TGI (CAKI-1 renal) of over 100 µM and a TGI (A549 NSCLC) of over 100 µM. For the same compound, the TGI (NCI-H460 lung) was over 100 µM, the TGI (EKVX NSCLC) was over 100 µM and the TGI (CCRF-CEM leukemia) was over 100 µM. It also gave a TGI (TK-10 renal) of over 100 µM, a TGI (MDA-MB-435) of over 100 µM and a TGI (SF-268 CNS) of over 100 µM.
Work on CCC(CN(C)C)C(=O)c1ccco1 (stereo unspecified) yielded a TGI (OVCAR-5 ovarian) of over 100 µM, a TGI (HOP-92 NSCLC) of over 100 µM and a TGI (LOX IMVI melanoma) of over 100 µM. The TGI (RPMI-8226 leukemia) was over 100 µM, the TGI (SW-620 colon) was over 100 µM and the TGI (786-0 renal) was over 100 µM. For the same compound, the TGI (A498 renal) was over 100 µM, the TGI (PC-3 prostate) was over 100 µM and the TGI (MOLT-4 leukemia) was 96.8 µM. It also gave a TGI (HOP-62 NSCLC) of over 100 µM, a TGI (UO-31 renal) of over 100 µM and a TGI (ACHN renal) of over 100 µM. It also gave a TGI (BT-549 breast) of over 100 µM, a TGI (RXF 393 renal) of over 100 µM and a TGI (K-562 leukemia) of over 100 µM. It also gave a TGI (OVCAR-8 ovarian) of over 100 µM, a TGI (MCF7 breast) of over 100 µM and a TGI (SNB-75 CNS) of over 100 µM. It also gave a TGI (HS 578T breast) of over 100 µM, a TGI (DU-145 prostate) of over 100 µM and a TGI (U251 CNS) of over 100 µM. It also gave a TGI (IGROV1 ovarian) of over 100 µM, a TGI (OVCAR-4 ovarian) of over 100 µM and a TGI (SK-MEL-2 melanoma) of over 100 µM. It also gave a TGI (HCT-116 colon) of over 100 µM, a TGI (HCT-15 colon) of over 100 µM and a TGI (SF-295 CNS) of over 100 µM. The TGI (NCI-H23 lung) was over 100 µM, the TGI (UACC-62 melanoma) was over 100 µM and the TGI (UACC-257 melanoma) was over 100 µM. The TGI (OVCAR-3 ovarian) was over 100 µM, the TGI (T-47D breast) was over 100 µM and the TGI (NCI-H522 lung) was 35.6 µM. It also gave a TGI (SR leukemia) of over 100 µM, a TGI (M14 melanoma) of over 100 µM and a TGI (SK-OV-3 ovarian) of over 100 µM. The TGI (SK-MEL-28 melanoma) was over 100 µM, the TGI (MDA-MB-231 breast) was over 100 µM and the TGI (MALME-3M melanoma) was over 100 µM. It also gave a TGI (HT29 colon) of over 100 µM, a TGI (HCC-2998 colon) of over 100 µM and a TGI (KM12 colon) of over 100 µM. For the same compound, the TGI (SN12C renal) was over 100 µM, the TGI (NCI/ADR-RES ovarian) was over 100 µM and the TGI (SNB-19 CNS) was over 100 µM. It also gave a TGI (CAKI-1 renal) of over 100 µM, a TGI (A549 NSCLC) of over 100 µM and a TGI (NCI-H460 lung) of over 100 µM. For the same compound, the TGI (EKVX NSCLC) was over 100 µM, the TGI (TK-10 renal) was over 100 µM and the TGI (MDA-MB-435) was over 100 µM. For the same compound, the TGI (SF-268 CNS) was over 100 µM.
